This assay concerns Plasmodium falciparum. As to the kind of experiment: GSK_TCMDC: Inhibition of Plasmodium falciparum 3D7 in whole erythrocytes, using parasite LDH activity as an index of growth. It counts as functional, organism-based. Conditions: Plasmodium falciparum, 3D7.

Each structure is given as a SMILES string.

As for `NC(=O)c1cc(-c2ccccc2)cc2c(C3CCC(NCc4ccccc4)C3)c[nH]c12` (configuration not stated), the XC50 is 910 nM.

With `CC(C)c1ccc(-c2nc3cc(Cl)cnc3[nH]2)cc1`, the XC50 came to 857 nM.

The molecule `CC(=O)Nc1ccc(C(=O)Nc2cccc(-c3cccc(-c4nc5cc(F)ccc5[nH]4)c3)c2)cn1` displayed an XC50 of 134 nM.

`COc1cc2ccccc2cc1OCCCN1CCN(CC(c2ccc(F)cc2)N2CCN(C(C)C)CC2)CC1` (configuration not stated) registered an XC50 of 749 nM.

`Cc1cc(N2CCNCC2)c2cc(NC(=O)Nc3ccc(Cl)c(Cl)c3)ccc2n1` came in with an XC50 of 313 nM.

`CC(=O)Nc1nnc(SCc2c(C)cc(C(C)(C)C)cc2C)s1` yielded an XC50 of 704 nM.

`CCc1ccc(S(=O)(=O)Nc2ccc(CCN(C)C3CCN(C)CC3)cc2)cc1` showed an XC50 of 1060 nM.

With `Cn1cc(CN2CCC(OC(c3ccccc3)c3ccc(Cl)cc3)CC2)cn1` (configuration not stated), the XC50 is 839 nM.

For the molecule `NC1CCN(Cc2cccc(-c3cccc(-c4nc5ccccc5[nH]4)c3)c2)C1` (configuration not stated), the XC50 is 790 nM.

In the case of `O=C(NCCc1ccccc1)N(Cc1ccc(-c2cccc(CN3CCNCC3)c2)cc1)C1CCN(Cc2ccccc2)CC1`, the XC50 was determined as 1360 nM.

As to `CCC(C)NCCC(c1ccccc1)c1ccccc1O` (configuration not stated), the XC50 worked out at 788 nM.

In turn, `Nc1cc(-c2cc3c(OCc4ccccc4)cccc3[nH]2)ccn1` registered an XC50 of 1190 nM.

`CC(C)CCN1CCCN(Cc2ccc(C(=O)NCc3ccc(Cl)cc3)cc2)CC1`: the XC50 was determined as 1010 nM.

Consider `CC(=O)Nc1ccc(COc2ccc(Nc3ccnc4cc(-c5ccccn5)ccc34)cc2)cc1`, for which the XC50 came out at 196 nM.

Turning to `COCCN(C(=O)Cc1cccs1)C(C(=O)NCc1ccc(OC)cc1)c1ccc(C(C)C)cc1` (configuration not stated), the XC50 was determined as 845 nM.

Molecule `Cc1cc(CNCCCCCCNCc2cccc([N+](=O)[O-])c2)ccc1O` displayed an XC50 of 723 nM.

On to `O=C(Nc1ccc(OC2CCN(Cc3ccc(F)cc3)C2)c(Cl)c1)c1ccccc1` (configuration not stated), for which the XC50 amounted to 787 nM.

As for `CCC(C)(C)NC(C)C(O)c1ccc(C(F)(F)F)cc1` (configuration not stated), the XC50 was found to be 750 nM.

Molecule `CCC(=O)Nc1nnc(Cc2ccc(OC)c(OC)c2)s1` yielded an XC50 of 910 nM.

On to `O=C(Nc1cccc(C(F)(F)F)c1)N1CCOC(CCN2CCC(c3ccccc3)CC2)(c2ccc(Cl)c(Cl)c2)C1` (configuration not stated), for which the XC50 turned out to be 1110 nM.

The molecule `Cc1cc(C2CCN(CCCCNC(=O)c3ccc(-c4ccc(C#N)cc4)cc3)CC2)c(C)cc1O` showed an XC50 of 854 nM.

The molecule `O=C(Nc1cccc(-c2cc3ccccc3[nH]2)c1)C1CCN(Cc2ccccc2O)CC1` yielded an XC50 of 938 nM.

With `CCCN1CCc2c(sc3nc(SCC(=O)Nc4ccc(C)cc4)n(-c4ccc(C)cc4)c(=O)c23)C1`, the XC50 was determined as 869 nM.

In turn, `COc1ccc(CCN(C)CCCOc2ccc(NC(=O)c3cccc4c(=O)c5ccccc5[nH]c34)cc2)cc1OC` had an XC50 of 912 nM.

In turn, `CC(=O)c1cccc(NC(=O)N2CCCN(CCCCCNC(=O)/C=C/c3ccc(Cl)c(Cl)c3)CC2)c1` gave an XC50 of 1010 nM.

Molecule `Cn1nc(-c2ccc(CNC3CCc4ccccc43)cc2)c2cnc(NCCCN3CCCC3)nc21` (configuration not stated) gave an XC50 of 1110 nM.

For `Cc1cc(N[C@@H](Cc2ccccc2)C(=O)NCCc2ccccc2)nc(NCCOc2ccccc2)n1`, the XC50 turned out to be 1000 nM.

Molecule `O=C(NCCc1ccc(Cl)c(Cl)c1)[C@@H]1CCCN1C(=O)c1ccc(O)c(-c2ccc(Cl)c(Cl)c2)c1` returned an XC50 of 550 nM.

For the molecule `CC(C)CCN1CCC(Oc2ccc(NC(=O)c3ccc4ncccc4c3)cc2Cl)C1` (configuration not stated), the XC50 was found to be 974 nM.

Molecule `CCCCCCCCNCC(O)c1cc(-c2ccc(Cl)cc2)nc2cc(C)ccc12` (configuration not stated) registered an XC50 of 82.3 nM.

`Clc1ccc(OC2CCC(Cn3ccnc3)(c3ccc(Cl)cc3Cl)CC2)c(Cl)c1` (configuration not stated) returned an XC50 of 800 nM.

The molecule `Cc1cc(N[C@@H](CC(C)C)C(=O)Nc2ccccc2)nc(NCC2CCCCC2)n1` displayed an XC50 of 874 nM.

In turn, `CN(Cc1cc(C(F)(F)F)cc(C(F)(F)F)c1)C(=O)C(Cc1ccc(F)cc1)C1CCCNC1` (configuration not stated) yielded an XC50 of 1540 nM.

The molecule `O=S(=O)(NCCN1CCCC1)c1ccc(-c2ccc(CNCc3ccccc3)cc2)cc1F` showed an XC50 of 1290 nM.

Turning to `Cc1cc(=O)c(-c2ccc(Oc3ccc(C(F)(F)F)cc3)cc2)c(C)n1O`, the XC50 amounted to 604 nM.

In turn, `COc1cc2nc(Nc3ccc4c(c3)OCCO4)nc(N)c2cc1OC` gave an XC50 of 469 nM.

Molecule `CCc1cn2c3c(cc(C(=O)N[C@@H](Cc4ccccc4)[C@H](O)CNCCOC)cc13)N(C)S(=O)(=O)CC2` gave an XC50 of 954 nM.

Molecule `CN(C)Cc1ccc(-c2ccc(NC(=O)c3ccc4c(=O)n(Cc5ccccc5)cnc4c3)cc2)cc1` showed an XC50 of 647 nM.

Regarding `CC(C)(CN)c1nc(-c2ccc(Cl)c(O)c2)c(-c2ccncc2)[nH]1`, the XC50 stood at 756 nM.

As to `Cc1cc(NCCc2ccc(O)cc2)nc(NCC(c2ccccc2)c2ccccc2)n1`, the XC50 was 320 nM.

Molecule `O=C(NCCNc1ccnc(Nc2ccc(F)cc2)n1)Nc1ccccc1F` had an XC50 of 762 nM.

`O=c1cc(NCCC(CNCc2cc3ccccc3o2)NCc2cc(Br)cc(Br)c2)[nH]c2ccccc12` (configuration not stated): the XC50 was 1210 nM.

Turning to `O=C1COc2ccc(S(=O)(=O)N3CCC[C@@H]3CCN3CCC(c4c[nH]c5cnccc45)CC3)cc2N1`, the XC50 worked out at 865 nM.

`Cc1nnc2c(NC(=O)NC3CCCC3)cc3cc(-c4ccc(CN(C)C)cc4)ccc3n12` returned an XC50 of 1470 nM.

`COc1ccc(CCN2CCC(Nc3nc4ccccc4n3CCc3ccc(OC)cc3)CC2)cc1` displayed an XC50 of 657 nM.

Molecule `O=C(/C=C/c1ccc(Cl)c(Cl)c1)NCCCCCN1CCC(NC(=O)Nc2ccccc2Cl)CC1` came in with an XC50 of 714 nM.

In the case of `NC(CC1CC(=O)N1CC(=O)O)C(=O)O` (configuration not stated), the XC50 worked out at 156 nM.

`O=C(c1cccc(-c2ccc(-c3nc4cc(F)ccc4[nH]3)s2)c1)N1CCCCC1CN1CCC(O)C1` (configuration not stated): the XC50 came to 715 nM.

Regarding `NC1=NC(c2ccccc2)(c2ccccc2)C(=O)N1CC1CCC1`, the XC50 was 753 nM.

As to `CCCN(Cc1ccc(OCC)cc1)Cc1cc(=O)c2cc(Cl)ccc2[nH]1`, the XC50 was 1260 nM.

On to `COCCNC(=O)C1CCN(C(c2ccc(Cl)cc2)c2ccc(Cl)cc2)CC1`, for which the XC50 was found to be 553 nM.

The molecule `O=C(NCCc1ccc(Cl)c(Cl)c1)[C@@H]1CCCN1C(=O)c1ccc(O)c(-c2cccc(C(F)(F)F)c2)c1` came in with an XC50 of 825 nM.

Molecule `CC1CN(Cc2ccc(-c3ccc(-c4nc5ccccc5[nH]4)cc3)cc2)CC(C)O1` (configuration not stated) gave an XC50 of 523 nM.

Consider `Cc1ccc(CN2CCN(Cc3cccc(NC(=O)c4cccs4)c3)CC2)cc1C`, for which the XC50 turned out to be 1030 nM.

Molecule `Cc1ccc(CNC(=O)c2cc3c(=O)n4ccccc4nc3n(CCCN3CCOCC3)c2=N)cc1` yielded an XC50 of 1090 nM.

In turn, `CC(C)c1ccc(NS(=O)(=O)c2cccc(C(=O)NC3CCN(CC4CCCCC4)CC3)c2)cc1` showed an XC50 of 1300 nM.

In the case of `O=C(NC1CCCCN(Cc2ccccc2O)C1)c1ccc(-c2ccccc2)cc1` (configuration not stated), the XC50 turned out to be 759 nM.

Molecule `O=C(NCC1CC1)C1CCN(C(c2ccccc2)c2ccc(Cl)c(Cl)c2)CC1` (configuration not stated) yielded an XC50 of 369 nM.

`CO/C(=C\C=C\c1cc2cc(Cl)c(Cl)cc2[nH]1)C(=O)NCCCNCCN(C)c1ccccc1` displayed an XC50 of 784 nM.

The molecule `Cc1ccc2c(=O)n(C)c(=O)n(C)c2n1` yielded an XC50 of 819 nM.

Turning to `CCC[C@@H]([C@@H](CC1CCCCC1)C(=O)N[C@H](C(=O)Nc1ccccn1)[C@H](C)CC)N(O)C=O`, the XC50 came to 533 nM.

Turning to `CO[C@@H]1C[C@@H](C(=O)Nc2ccccc2)N(c2ccc(C#N)c3ccccc23)C1`, the XC50 stood at 907 nM.

Regarding `Cc1cc(NCCC(=O)NCc2cccc(F)c2)nc(Nc2ccccc2)n1`, the XC50 amounted to 1050 nM.

`COc1ccc(-c2ccc(NC(=O)c3ccccc3)cc2)cc1CN1CCCN(C)CC1` returned an XC50 of 905 nM.

Molecule `O=C(Cc1n[nH]c(=O)c2ccccc12)Nc1cccc(C(=O)Nc2cccc(C(F)(F)F)c2)c1` had an XC50 of 169 nM.

`N#Cc1ccc(N2CCN(Cc3ccc(-c4ccc(-c5nc6cc(C(F)(F)F)ccc6[nH]5)cc4)cc3)CC2)nc1` gave an XC50 of 963 nM.

For `Cc1ccccc1C1CCN(C2CCC(NC(=O)/C=C/c3c(F)ccc(F)c3F)CC2)CC1` (configuration not stated), the XC50 is 1260 nM.

In the case of `COc1ccc2ncc(F)c(CCN3C4CCC3CC(NCc3ccc5c(c3)OCCO5)C4)c2n1` (configuration not stated), the XC50 is 225 nM.

Turning to `CC(C)(C)n1nnnc1C(c1cccnc1)N(Cc1ccccc1)Cc1ccc(Cl)cc1` (configuration not stated), the XC50 was determined as 744 nM.

`O=C(NCc1cccnc1)C(c1cc2ccccc2o1)N1CCN(C(c2ccccc2)c2ccccc2)CC1` (configuration not stated) registered an XC50 of 713 nM.

For the molecule `Cc1ccc(Nc2nc(N/N=C/c3cccc([N+](=O)[O-])c3)nc(Nc3ccccc3)n2)c(C)c1`, the XC50 came out at 626 nM.

In the case of `COc1ccc2nccc(N3CCC(SCCNS(=O)(=O)c4ccc5c(c4)OCCO5)C3)c2n1` (configuration not stated), the XC50 is 981 nM.

In turn, `COc1ccc2ncc(F)c(CCN3C[C@H](CNCc4cc(C#N)c5c(c4)OCCO5)[C@H](O)C3)c2n1` returned an XC50 of 582 nM.

`CN1CCCN(Cc2cccc(-c3ccc(CNC(=O)c4cccc(Cl)c4)c(F)c3)c2)CC1` registered an XC50 of 190 nM.

The molecule `CCCCCCN1CCC(NCc2cccc([N+](=O)[O-])c2)CC1` showed an XC50 of 668 nM.

The molecule `COc1ccc(CC(=O)Nc2ccc(Nc3nc(C)cc(N4CCCC4)n3)cc2)cc1` yielded an XC50 of 1110 nM.

Molecule `CCCNc1nc(NCc2c(C)cccc2C)nc(NC(C)(C)C)n1` came in with an XC50 of 862 nM.

`CC(=O)N(Cc1ccccc1-c1cccc(CNCc2ccc3c(c2)OCO3)c1)C1CCN(Cc2ccccc2)CC1` displayed an XC50 of 1050 nM.

`Cc1ccc(C(=O)Nc2ccc(C)c(OC3CCN(CCC(C)C)C3)c2)cc1` (configuration not stated) showed an XC50 of 793 nM.

As for `CNCCNCc1cccc(-c2ccc(-c3nc4cc(C(F)(F)F)ccc4[nH]3)s2)c1`, the XC50 was determined as 823 nM.

Take `O=C1CN(C(=O)CCC2CCCC2)C(c2ccc(F)cc2)c2cc(F)ccc2N1` (configuration not stated): the XC50 was 168 nM.

The molecule `Cc1nc(C)n(CC(=O)Nc2cccc(-c3cccc(-c4nc5cc(C(F)(F)F)ccc5[nH]4)c3)c2)n1` gave an XC50 of 761 nM.

As to `COc1ccc(-c2cccc(NC(=O)c3ccc(C#N)cc3)c2)cc1CN1CCN(C)CC1`, the XC50 turned out to be 990 nM.

Take `CO/C(=C\C=C\c1cc2cc(Cl)c(Cl)cc2[nH]1)C(=O)NCCCN1CCC(c2ccccc2)CC1`: the XC50 came out at 906 nM.

Regarding `N=C1N=C(N)NC2(CCCCC2)N1OCCOc1ccc(Cc2ccccc2)cc1`, the XC50 was determined as 1130 nM.

`Cc1cccc2nc(-c3cccc(-c4cccc(CNCCN5CCNCC5)c4)c3)[nH]c12` gave an XC50 of 970 nM.

Turning to `N#Cc1ccc(N2CCN(Cc3cccc(-c4cccc(-c5nc6cc(F)ccc6[nH]5)c4)c3)CC2)nc1`, the XC50 worked out at 959 nM.
